For this assay, the system named is PC3 cells. In words: NAMPT Cell Proliferation Assay. Particulars: Homo sapiens, PC-3, 120 h, 5 days incubation, cell viability by Cell Titer Glo. The class given is cell-based. A digest of the protocol: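 Seeded at 500 cells/well in RPMI with 10% heat-inactivated FBS and left to attach overnight at 37° C, 5% CO2. Compounds were added as 10-fold dilutions […] for 5 days, then viability was read by CellTiter-Glo. IC50s came from sigmoidal fits of percent inhibition.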
On the technique in general: In ATP-based viability assays light output follows the ATP content of the culture.

Molecules are shown by their SMILES.

For orientation: IC50 means the midpoint of a concentration-inhibition curve. Lower therefore signals higher potency. Take `CC(C)(C)C(=O)N1CC[C@H](Oc2ccc(NC(=O)[C@H]3CCN(c4cccnn4)C3)cc2)C1` [Example 827, (3S)—N-(4-{[(3S)-1-(2,2-dimethylpropanoyl)pyrrolidin-3-yl]oxy}phenyl)-1-(pyridazin-3-yl)pyrrolidine-3-carboxamide]: half-maximal inhibition (IC50) was put at 73.7 nM. The result for `O=C(Nc1ccc(C2CCN(C(=O)c3ccccc3F)CC2)cc1F)C1CN(c2cccnn2)C1` [Example 828, N-{2-fluoro-4-[1-(2-fluorobenzoyl)piperidin-4-yl]phenyl}-1-(pyridazin-3-yl)azetidine-3-carboxamide] reads 0.826 nM; that for `O=C(Nc1ccc(C2CCN(C(=O)c3ccccc3)CC2)cc1F)C1CN(c2cccnn2)C1` [Example 829, N-[4-(1-benzoylpiperidin-4-yl)-2-fluorophenyl]-1-(pyridazin-3-yl)azetidine-3-carboxamide], 2.95 nM.

As to `O=C(Nc1ccc(C2CCN(C(=O)c3cccc(F)c3)CC2)cc1F)C1CN(c2cccnn2)C1` [Example 830, N-{2-fluoro-4-[1-(3-fluorobenzoyl)piperidin-4-yl]phenyl}-1-(pyridazin-3-yl)azetidine-3-carboxamide], the IC50 is 7.96 nM. The result for `Cc1ccccc1C(=O)N1CCC(c2ccc(NC(=O)C3CN(c4cccnn4)C3)c(F)c2)CC1` [Example 831, N-{2-fluoro-4-[1-(2-methylbenzoyl)piperidin-4-yl]phenyl}-1-(pyridazin-3-yl)azetidine-3-carboxamide] reads 7.25 nM; that for `O=C(Nc1ccc(C2CCN(C(=O)c3ccc(F)cc3)CC2)cc1F)C1CN(c2cccnn2)C1` [Example 832, N-{2-fluoro-4-[1-(4-fluorobenzoyl)piperidin-4-yl]phenyl}-1-(pyridazin-3-yl)azetidine-3-carboxamide], 16.7 nM; that for `O=C(Nc1ccc(C2CCN(C(=O)c3ccc(F)cc3F)CC2)cc1F)C1CN(c2cccnn2)C1` [Example 833, N-{4-[1-(2,4-difluorobenzoyl)piperidin-4-yl]-2-fluorophenyl}-1-(pyridazin-3-yl)azetidine-3-carboxamide], 6.67 nM. Next, `O=C(Nc1ccc(C2CCN(C(=O)c3cc(F)cc(F)c3)CC2)cc1F)C1CN(c2cccnn2)C1` [Example 834, N-{4-[1-(3,5-difluorobenzoyl)piperidin-4-yl]-2-fluorophenyl}-1-(pyridazin-3-yl)azetidine-3-carboxamide]: 14.4 nM; `CC(C)(C)CC(=O)N1CCC(c2ccc(NC(=O)C3CN(c4cccnn4)C3)c(F)c2)CC1` [Example 835, N-{4-[1-(3,3-dimethylbutanoyl)piperidin-4-yl]-2-fluorophenyl}-1-(pyridazin-3-yl)azetidine-3-carboxamide]: 2.35 nM. `Cc1ccc(N2CC[C@H](C(=O)Nc3ccc(OC4CCN(C(=O)c5ccccc5F)CC4)cc3)C2)nn1` [Example 836, (3S)—N-(4-{[1-(2-fluorobenzoyl)piperidin-4-yl]oxy}phenyl)-1-(6-methylpyridazin-3-yl)pyrrolidine-3-carboxamide] had an IC50 of 658 nM. The result for `Cc1ccc(N2CC[C@H](C(=O)Nc3ccc(OC4CCN(C(=O)c5ccccc5)CC4)cc3)C2)nn1` [Example 837, (3S)—N-{4-[(1-benzoylpiperidin-4-yl)oxy]phenyl}-1-(6-methylpyridazin-3-yl)pyrrolidine-3-carboxamide] reads 769 nM. For `Cc1ccc(N2CC[C@H](C(=O)Nc3ccc(OC4CCN(C(=O)C(C)(C)C)CC4)cc3)C2)nn1` [Example 838, (3S)—N-(4-{[1-(2,2-dimethylpropanoyl)piperidin-4-yl]oxy}phenyl)-1-(6-methylpyridazin-3-yl)pyrrolidine-3-carboxamide], half-maximal inhibition (IC50) required 1770 nM.

Turning to `Cc1ccc(N2CC[C@H](C(=O)Nc3ccc(OC4CCN(C(=O)C5CCCCC5)CC4)cc3)C2)nn1` [Example 839, (3S)—N-(4-{[1-(cyclohexylcarbonyl)piperidin-4-yl]oxy}-phenyl)-1-(6-methylpyridazin-3-yl)pyrrolidine-3-carboxamide], the IC50 amounted to 2000 nM. The molecule `CC(C)C(=O)N1C2CCC1CC(c1ccc(NC(=O)C3CN(c4cccnn4)C3)cc1)C2` (stereo not drawn) [Example 840, N-{4-[8-(2-methylpropanoyl)-8-azabicyclo[3.2.1]oct-3-yl]phenyl}-1-(pyridazin-3-yl)azetidine-3-carboxamide] had a concentration for half-maximal inhibition (IC50) of 2.8 nM. As to `O=C(Nc1ccc(C2CC3CCC(C2)N3C(=O)CCC(F)(F)F)cc1)C1CN(c2cccnn2)C1` (stereo not drawn) [Example 841, 1-(pyridazin-3-yl)-N-{4-[8-(4,4,4-trifluorobutanoyl)-8-azabicyclo[3.2.1]oct-3-yl]phenyl}azetidine-3-carboxamide], the concentration for half-maximal inhibition (IC50) came out at 3.55 nM.

In turn, `O=C(Nc1ccc(C2CC3CCC(C2)N3C(=O)c2ccccc2)cc1)C1CN(c2cccnn2)C1` (stereo not drawn) [Example 842, N-[4-(8-benzoyl-8-azabicyclo[3.2.1]oct-3-yl)phenyl]-1-(pyridazin-3-yl)azetidine-3-carboxamide] came in with a concentration for half-maximal inhibition (IC50) of 0.665 nM. `O=C(Nc1ccc(C2CC3CCC(C2)N3C(=O)c2ccccc2F)cc1)C1CN(c2cccnn2)C1` (stereo not drawn) [Example 843, N-{4-[8-(2-fluorobenzoyl)-8-azabicyclo[3.2.1]oct-3-yl]phenyl}-1-(pyridazin-3-yl)azetidine-3-carboxamide] showed an IC50 of 0.61 nM. The result for `CC(C)(C)C(=O)N1C2CCC1CC(c1ccc(NC(=O)C3CN(c4cccnn4)C3)cc1)C2` (stereo not drawn) [Example 844, N-{4-[8-(2,2-dimethylpropanoyl)-8-azabicyclo[3.2.1]oct-3-yl]phenyl}-1-(pyridazin-3-yl)azetidine-3-carboxamide] reads 2.52 nM. Consider `CC1(C(=O)N2C3CCC2CC(c2ccc(NC(=O)C4CN(c5cccnn5)C4)cc2)C3)CC1` (stereo not drawn) [Example 845, N-(4-{8-[(1-methylcyclopropyl)carbonyl]-8-azabicyclo[3.2.1]oct-3-yl}phenyl)-1-(pyridazin-3-yl)azetidine-3-carboxamide], for which the midpoint of inhibition, the IC50, lay at 2.09 nM.

Consider `COCCn1nc(CC(C)C)cc1-c1ccc(NC(=O)C2CN(c3cccnn3)C2)cc1` [Example 846, N-{4-[1-(2-methoxyethyl)-3-(2-methylpropyl)-1H-pyrazol-5-yl]phenyl}-1-(pyridazin-3-yl)azetidine-3-carboxamide], for which it took 7.24 nM to reach half-maximal inhibition (IC50). Take `CC(C)(C)C(=O)N1CCC(c2ccc(C(=O)NC3CN(c4cccnn4)C3)s2)CC1` [Example 847, 5-[1-(2,2-dimethylpropanoyl)piperidin-4-yl]-N-[1-(pyridazin-3-yl)azetidin-3-yl]thiophene-2-carboxamide]: 115 nM corresponded to half-maximal inhibition (IC50).

The molecule `CC1(C(=O)N2CCC(c3ccc(C(=O)NC4CN(c5cccnn5)C4)s3)CC2)CC1` [Example 848, 5-{1-[(1-methylcyclopropyl)carbonyl]piperidin-4-yl}-N-[1-(pyridazin-3-yl)azetidin-3-yl]thiophene-2-carboxamide] had a half-inhibitory concentration (IC50) of 609 nM. Consider `O=C(NC1CN(c2cccnn2)C1)c1ccc(C2CCN(C(=O)CC(F)(F)F)CC2)s1` [Example 849, N-[1-(pyridazin-3-yl)azetidin-3-yl]-5-[1-(3,3,3-trifluoropropanoyl)piperidin-4-yl]thiophene-2-carboxamide], for which the 50% inhibitory concentration (IC50) is 685 nM. As to `CCC(C)(C)C(=O)N1CCC(c2ccc(C(=O)NC3CN(c4cccnn4)C3)s2)CC1` [Example 850, 5-[1-(2,2-dimethylbutanoyl)piperidin-4-yl]-N-[1-(pyridazin-3-yl)azetidin-3-yl]thiophene-2-carboxamide], the IC50 was 70.5 nM.

The record behind these values is US20130303509A1, “NAMPT INHIBITORS” (AbbVie Inc., priority 2012, published 2013).
